The values below are quoted from earlier work in patent publication US20050171206A1, “Therapeutical use” (priority 2004, published 2005).

For one data set, the system named is SMA patients. The note with it: published clinical trials; cited from earlier work.
In the next data set the test system is SMN2 genes. The note with it: in vitro, cell cultures; cited from earlier work.

In the case of `Nc1nc2ccc(OC(F)(F)F)cc2s1` [riluzole], the “clinical outcome in SMA patients” value in the data set with SMA patients was “no statistically significant improvement”.
On to `CCCC(=O)[O-].[Na+]` [sodium butyrate], for which, in the data set with SMN2 genes, the “expression of the SMN2 genes” value is reported as “can increase SMN2 gene expression in vitro”.
With `NCC1(CC(=O)O)CCCCC1` [gabapentin], in the data set with SMA patients, the “clinical outcome in SMA patients” value is listed as “did not show improvement of the symptoms”.
Regarding `CC(C)(C)NCC(O)c1ccc(O)c(CO)c1` (stereo not shown) [albuterol], the “clinical outcome in SMA patients” value with SMA patients is listed as “improvement in clinical symptoms”.
For `O=C(O)CCCc1ccccc1` [PBA, 4-phenylbutyric acid], in the data set with SMN2 genes, the SMN protein levels entry is “effective in enhancing SMN protein levels”, the “expression of the SMN2 genes” value is recorded as “effective in increasing the expression of the SMN2 genes” and the “number of SMN containing nuclear structures” value is on record as “effective in enhancing”.
